Experimental data from patent EP3011965B1, “SALVIA MILTIORRHIZA EXTRACT, MICROPELLET FORMULATION THEREOF, METHODS OF PREPARING SAME, AND USES THEREOF” (Tasly Pharmaceutical Group Co., Ltd., priority 2013, dated 2014).
Marks after values point to notes of the source that are not given here.

Test system: zebra fish high blood lipid model
Test: Quantitative evaluation of blood lipid lowering effect in zebra fish high blood lipid model
Assay type: in vivo, zebra fish of ALBINO strain
Conditions: 48 hours after treatment; for Blood lipid reducing rate: 0.081 µg/ml (text: 0.08 µg/ml), vs model group
Description: Animal: Zebra fish embryos were propagated by means of natural pair mating. Each mating, 4∼5 pairs of adult were prepared, and in average, each pair of zebra fish produced 200∼300 embryos. At 6th hour post-fertilization (6hpf) and 24hpf, the embryos were cleaned (removing dead embryo) and qualified embryos were selected according to embryo developing stage (Kimmel et al. 1995). At 28°C, embryos were incubated in fish-farming water, which contained 200mg instant soluble sea salt in 1L reverse osmosis water with conductivity of 480-510 µS/cm, pH of 6.9-7.2, hardness of 53.7-71.6 mg/L CaCO3. Feeding was required since 9 days post-fertilization (9dPf) because the embryos could get nutrients from their own yolk sac. After study, tricaine methane sulfonate (TMS) was used to overexpose the embryos in various developmental stages and the zebra fish were anesthetized and sacrificed. Sacrifice procedure was in light of the sacrifice-under-anesthesia regulatory requirement of AVMA (America Veterinary medical Association).
According to results of part A, the blood lipid lowering effect of Danshen extract in three concentrations was evaluated (usually at MNLC, 1/3MNLC and 1/10 MNLC), and 30 zebra fish treated in each concentration.
High-fat food was used to feed juvenile fish of zebra fish of ALBINO strain to induce zebra fish high blood lipid model.
After feeding, the zebra fish high blood lipid model was treated with tested drug for 48 hours.
Positive drug: lovastatin at 0.08 µg/ml.
After being treated with tested drugs, zebra fish were fat stained with fat-specific colorant.
Fifteen zebra fish were randomly selected in each concentration to observe intensity of zebra fish tail blood fat stain, pictured and saved.
Image -Pro Plus 6.0 image analytical software was used to analyze the image. The signal strength of zebra fish tail blood fat stain (S) was calculated and quantitatively analyzed. The statistical results were expressed as X ± SE. […]

CC[C@H](C)C(=O)O[C@H]1C[C@@H](C)C=C2C=C[C@H](C)[C@H](CC[C@@H]3C[C@@H](O)CC(=O)O3)[C@H]21 [Lovastatin, lovastatin]
Blood lipid reducing rate: 26.3* % | Blood lipid reducing rate (listed as lovastatin): 26.3% | Tail blood lipid IOD (0.081 µg/ml, Mean±SE): 2142±109
